Earlier results on four compounds are cited in PubChem BioAssay AID1259409 (Chemical Carcinogenesis Research Information System (CCRIS), 2018).

Structures are written as SMILES.

This data set relates to rodent chemically induced tumor inhibition, incidence and multiplicity. Description: CCRIS tumor inhibitor studies.

Turning to `C#Cc1ccc2ccccc2c1`, the “tumour outcome (control, treated, inhibition, significance)” value is recorded as 100%, 89%, 11%, not significant (Carcinogen: 4-(METHYLNITROSAMINO)-1-(3-PYRIDYL)-1-BUTANONE, 64091-91-4, Dose [Inhibitor]: 0, 5 UMOL IN 0.1 ML CORN OIL ONCE 2 HR PRIOR TO CARCINOGEN DOSE (STUDY DURATION: 16 WK), Route [Inhibitor]: GAVAGE, Species: MOUSE, Strain/Sex: STRAIN-A/FEMALE, Target Tissue: Type of Lesion: LUNG: ADENOMA, Dose [Carcinogen]: 10 UMOL IN 0.1 ML SALINE ONCE, Promoter: NONE USED); 100%, 96%, 4%, not calculated (Carcinogen: 7,12-DIMETHYLBENZ[A]ANTHRACENE, 57-97-6, Dose [Inhibitor]: 0, 3300 NMOL IN 0.2 ML ACETONE APPLIED TO BACK ONCE 5 MIN PRIOR TO CARCINOGEN DOSE (STUDY DURATION: 26 WK), Route [Inhibitor]: DERMAL, Species: MOUSE, Strain/Sex: SENCAR/FEMALE, Target Tissue: Type of Lesion: SKIN: PAPILLOMA, Dose [Carcinogen]: 10 NMOL IN 0.2 ML ACETONE APPLIED TO BACK ONCE); 100%, 100%, 0%, not calculated (Carcinogen: 7,12-DIMETHYLBENZ[A]ANTHRACENE, 57-97-6, Dose [Inhibitor]: 0, 66000 NMOL IN 0.2 ML ACETONE APPLIED TO BACK ONCE 5 MIN PRIOR TO CARCINOGEN DOSE (STUDY DURATION: 20 WK), Route [Inhibitor]: DERMAL, Species: MOUSE, Strain/Sex: SENCAR/FEMALE, Target Tissue: Type of Lesion: SKIN: PAPILLOMA, Dose [Carcinogen]: 10 NMOL IN 0.2 ML ACETONE APPLIED TO BACK ONCE.); 100%, 89%, 11%, not calculated (Carcinogen: 7,12-DIMETHYLBENZ[A]ANTHRACENE, 57-97-6, Dose [Inhibitor]: 0, 132000 NMOL IN 0.2 ML ACETONE APPLIED TO BACK ONCE 5 MIN PRIOR TO CARCINOGEN DOSE (STUDY DURATION: 20 WK), Route [Inhibitor]: DERMAL, Species: MOUSE, Strain/Sex: SENCAR/FEMALE, Target Tissue: Type of Lesion: SKIN: PAPILLOMA, Dose [Carcinogen]: 10 NMOL IN 0.2 ML ACETONE APPLIED TO BACK ONCE.); 100%, 95%, 5%, not calculated (Carcinogen: BENZO[A]PYRENE, 50-32-8, Dose [Inhibitor]: 3300 NMOL IN 0.2 ML ACETONE APPLIED TO BACK ONCE 5 MIN PRIOR TO CARCINOGEN DOSE (STUDY DURATION: 26 WK), Route [Inhibitor]: DERMAL, Species: MOUSE, Strain/Sex: SENCAR/FEMALE, Target Tissue: Type of Lesion: SKIN: PAPILLOMA, Dose [Carcinogen]: 200 NMOL IN 0.2 ML ACETONE APPLIED TO BACK ONCE.); 100%, 89%, 11%, not calculated (Carcinogen: BENZO[A]PYRENE, 50-32-8, Dose [Inhibitor]: 33000 NMOL IN 0.2 ML ACETONE APPLIED TO BACK ONCE 5 MIN PRIOR TO CARCINOGEN DOSE (STUDY DURATION: 26 WK), Route [Inhibitor]: DERMAL, Species: MOUSE, Strain/Sex: SENCAR/FEMALE, Target Tissue: Type of Lesion: SKIN: PAPILLOMA, Dose [Carcinogen]: 200 NMOL IN 0.2 ML ACETONE APPLIED TO BACK ONCE.). The “tumour outcome (control, treated, inhibition, significance)” value runs as follows: (Carcinogen: BENZO[A]PYRENE, 50-32-8, Dose [Inhibitor]: 66000 NMOL IN 0.2 ML ACETONE APPLIED TO BACK ONCE 5 MIN PRIOR TO CARCINOGEN DOSE (STUDY DURATION: 20 WK), Route [Inhibitor]: DERMAL, Species: MOUSE, Strain/Sex: SENCAR/FEMALE, Target Tissue: Type of Lesion: SKIN: PAPILLOMA, Dose [Carcinogen]: 200 NMOL IN 0.2 ML ACETONE APPLIED TO BACK ONCE.) 75%, 74%, 1%, not calculated; (Carcinogen: N-METHYL-N'-NITRO-N-NITROSOGUANIDINE, 70-25-7, Dose [Inhibitor]: 0, 33000 NMOL IN 0.2 ML ACETONE APPLIED TO BACK ONCE 5 MIN PRIOR TO CARCINOGEN DOSE (STUDY DURATION: 20 WK), Route [Inhibitor]: DERMAL, Species: MOUSE, Strain/Sex: SENCAR/FEMALE, Target Tissue: Type of Lesion: SKIN: PAPILLOMA, Dose [Carcinogen]: 2500 NMOL IN 0.2 ML ACETONE APPLIED TO BACK ONCE.) 78%, 85%, -9%, not calculated. The outcome reads like this: (Carcinogen: 7,12-DIMETHYLBENZ[A]ANTHRACENE, 57-97-6, Dose [Inhibitor]: 0, 33000 NMOL IN 0.2 ML ACETONE APPLIED TO BACK ONCE 5 MIN PRIOR TO CARCINOGEN D (STUDY DURATION: 26 WK), Route [Inhibitor]: DERMAL, Species: MOUSE, Strain/Sex: SENCAR/FEMALE, Target Tissue: Type of Lesion: SKIN: PAPILLOMA, Dose [Carcinogen]: 10 NMOL IN 0.2 ML ACETONE APPLIED TO BACK ONCE.) 100%, 100%, 0, not calculated; (Carcinogen: 7,12-DIMETHYLBENZ[A]ANTHRACENE, 57-97-6, Dose [Inhibitor]: 0, 66000 NMOL IN 0.2 ML ACETONE APPLIED TO BACK ONCE 5 MIN PRIOR TO CARCINOGEN DOSE (STUDY DURATION: 26 WK), Route [Inhibitor]: DERMAL, Species: MOUSE, Strain/Sex: SENCAR/FEMALE, Target Tissue: Type of Lesion: SKIN: PAPILLOMA, Dose [Carcinogen]: 10 NMOL IN 0.2 ML ACETONE APPLIED TO BACK ONCE.) 100%, 100%, 0, not calculated.
Consider `CC(C)=CCc1cc(/C=C/C(=O)O)cc(CC=C(C)C)c1O`, for which the “tumour outcome (control, treated, inhibition, significance)” value (Carcinogen: FERRIC NITRILOTRIACETATE, 16448-54-7, Dose [Inhibitor]: 0, 350 UG/MOUSE IN OLIVE OIL TWICE/D FOR 5 D/WK FOR 1 YR BEGINNING POST CARCINOGEN TREATMENT (STUDY DURATION: 1 YR AND 8, Route [Inhibitor]: ORAL, Species: MOUSE, Strain/Sex: DDY/MALE, Target Tissue: Type of Lesion: KIDNEY: CARCINOMA, Dose [Carcinogen]: 43.6 MG/KG BW/D TWICE/WK FOR FIRST 8 WK, Promoter: NONE) was 1/9 (11%), 0/6 (0%), 100%, not significant.
In the case of `CCCCCC(O)CC(=O)CCC1CCC(O)C(OC)C1` (stereo not given), the “tumour outcome (control, treated, inhibition, significance)” value is, setting by setting: (Carcinogen: AZOXYMETHANE, 25843-45-2, Dose [Inhibitor]: 0, 0.02% IN DIET IN WK 1-3 OF STUDY FOLLOWED BY BASAL DIET FOR DURATION OF STUDY (STUDY DURATION: 1 YR), Route [Inhibitor]: ORAL, Species: RAT, Strain/Sex: F344/MALE, Target Tissue: Type of Lesion: LARGE INTESTINE: ADENOCARCINOMA, Dose [Carcinogen]: 15 MG/KG BW 1/WK IN WK 1 AND 2 OF STUDY, Promoter: NONE USED) 13/27 (48%), 3/17 (18%), 63%, not calculated; (Carcinogen: AZOXYMETHANE, 25843-45-2, Dose [Inhibitor]: 0, 0.02% IN DIET IN WK 1-3 OF STUDY FOLLOWED BY BASAL DIET FOR DURATION OF STUDY (STUDY DURATION: 1 YR), Route [Inhibitor]: ORAL, Species: RAT, Strain/Sex: F344/MALE, Target Tissue: Type of Lesion: LARGE INTESTINE: ADENOMA, Dose [Carcinogen]: 15 MG/KG BW 1/WK IN WK 1 AND 2 OF STUDY, Promoter: NONE USED) 6/27 (22%), 5/17 (29%), -32%, not calculated; (Carcinogen: AZOXYMETHANE, 25843-45-2, Dose [Inhibitor]: 0, 0.02% IN DIET IN WK 1-3 OF STUDY FOLLOWED BY BASAL DIET FOR DURATION OF STUDY (STUDY DURATION: 1 YR), Route [Inhibitor]: ORAL, Species: RAT, Strain/Sex: F344/MALE, Target Tissue: Type of Lesion: SMALL INTESTINE: ADENOCARCINOMA, Dose [Carcinogen]: 15 MG/KG BW 1/WK IN WK 1 AND 2 OF STUDY, Promoter: NONE USED) 6/27 (22%), 0/17 (0%), 100%, not calculated.
Regarding `O=CC(O)C(O)C(O)CO` (stereo not given), the “tumour outcome (control, treated, inhibition, significance)” value (Carcinogen: 1,2-DIMETHYLHYDRAZINE, 540-73-8, Dose [Inhibitor]: 0, 10% IN FIBER-FREE DIET FOR 24 WK BEGINNING POST CARCINOGEN TREATMENT (STUDY DURATION: 32 WK), Route [Inhibitor]: ORAL, Species: RAT, Strain/Sex: SPRAGUE-DAWLEY/MALE, Target Tissue: Type of Lesion: COLON: ADENOCARCINOMA, Dose [Carcinogen]: 12 MG/KG BW 1/WK FOR 8 WK, Promoter: NONE USED) is given as 73%, 53%, 27%, p=0.05.
